# Reference: patent US20100035866A1, “NOVEL SUBSTITUTED-1, 1-DIOXO-BENZO[1,2,4]THIADIAZIN-3ONES, PREPARATION METHOD THEREOF, AND PHARMACEUTICAL COMPOSITION CONTAINING THE SAME” (KOREA RESEARCH INSTITUTE OF CHEMICAL TECHNOLOGY, priority 2006, published 2010)
# Legend:
# [1] = target: Human serotonin 5-HT6 receptor (Homo sapiens, UniProt P50406); assay: [3H]LSD binding assay on cloned 5-HT6 receptor; conditions: IC50 (nM)
# hD2L receptor = target: T1, hD2L receptor (Homo sapiens, UniProt P14416); assay: Dopamine receptor family binding: D2 ([3H]spiperone); conditions: [3H]spiperone 1 nM; read-out: Binding affinity, IC50 (nM), D2
# T1 construct: purchased BioSignal Packard Inc., Montreal, Canada
# T1 sequence (P14416 whole entry): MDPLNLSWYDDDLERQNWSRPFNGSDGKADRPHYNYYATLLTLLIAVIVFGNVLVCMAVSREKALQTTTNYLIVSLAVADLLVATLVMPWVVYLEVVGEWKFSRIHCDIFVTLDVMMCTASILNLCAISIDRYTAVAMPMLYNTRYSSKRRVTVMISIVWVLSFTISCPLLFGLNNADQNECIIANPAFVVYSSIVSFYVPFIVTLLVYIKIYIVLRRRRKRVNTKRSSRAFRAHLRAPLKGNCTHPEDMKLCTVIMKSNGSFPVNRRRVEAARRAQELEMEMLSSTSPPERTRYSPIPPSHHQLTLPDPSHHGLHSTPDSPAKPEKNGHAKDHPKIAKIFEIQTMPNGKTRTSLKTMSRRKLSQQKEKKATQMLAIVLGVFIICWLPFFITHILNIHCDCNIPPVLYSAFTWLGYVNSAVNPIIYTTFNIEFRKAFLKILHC
# Protocol: (§1) 2-2: Binding Assays of Dopamine Receptor Family
# (§2) The radioligands used were [^3H]spiperone (for hD2L and hD3 receptors, 1 nM) and [^3H] YM-09151-2 (for hD4.2 receptor, 0.06 nM). Radioligand bindings were performed by the protocols provided by the supplier of receptor membranes (BioSignal Packard Inc., Montreal, Canada). Briefly, the buffer used in D2 or D3 receptor binding assay was 50 mM Tris-HCl (pH 7.4), 10 mM MgCl2, 1 mM EDTA, or 50 mM Tris-HCl (pH 7.4), 5 mM MgCl2 5 mM EDTA, 5 mM KCl, 1.5 mM CaCl2, 120 mM NaCl, respectively. In [^3H] YM-09151-2 receptor binding assays, the buffer containing 50 mM Tris-HCl (pH 7.4), 5 mM MgCl2, 5 mM EDTA, 5 mM KCl and 1.5 mM CaCl2 was used. […] Competition binding studies were carried out with 7-8 concentrations of the test compound run in duplicate tubes, and isotherms from three assays were calculated by computerized nonlinear regression analysis (GraphPad Prism Program, San Diego, […]) to yield median inhibitory concentration (IC50) values.
# 5-HT7 = target: T2, 5-HT7 (Homo sapiens, UniProt P34969); assay: Radioligand binding, 5-HT receptor family: 5-HT7 ([3H]LSD); conditions: CHO-K1 human recombinant receptor, [3H]LSD 3 nM; read-out: Binding affinity, IC50 (nM), 5-HT7
# T2 construct: purchased Euroscreen/BioSignal Packard Inc
# T2 sequence (P34969 whole entry): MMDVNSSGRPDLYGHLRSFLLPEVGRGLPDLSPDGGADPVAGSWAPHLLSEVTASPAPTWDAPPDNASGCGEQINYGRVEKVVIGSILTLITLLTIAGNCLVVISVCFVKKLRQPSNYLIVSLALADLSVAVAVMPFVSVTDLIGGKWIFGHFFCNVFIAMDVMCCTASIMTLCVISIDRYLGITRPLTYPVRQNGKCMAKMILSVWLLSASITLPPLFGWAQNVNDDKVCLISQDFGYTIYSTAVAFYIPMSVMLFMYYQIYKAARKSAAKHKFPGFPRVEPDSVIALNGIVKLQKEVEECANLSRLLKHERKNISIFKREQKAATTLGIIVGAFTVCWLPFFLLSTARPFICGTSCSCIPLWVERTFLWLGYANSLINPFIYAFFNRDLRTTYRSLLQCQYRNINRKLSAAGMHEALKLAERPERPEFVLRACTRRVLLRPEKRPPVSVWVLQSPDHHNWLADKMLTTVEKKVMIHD
# Protocol: Radioligand bindings were performed according to the test method provided by the supplier of receptor membrane (Euroscreen/BioSignal Packard Inc.). The detailed assay conditions and the results were shown in the following Table 3 and Table 4, respectively.
# 5-HT2c = target: T3, 5-HT2c (Homo sapiens, UniProt P28335); assay: Radioligand binding, 5-HT receptor family: 5-HT2c ([3H]Mesulergine); conditions: CHO-K1 human recombinant receptor, [3H]Mesulergine 1 nM; read-out: Binding affinity, IC50 (nM), 5-HT2c
# T3 construct: purchased Euroscreen/BioSignal Packard Inc
# T3 sequence (P28335 33-458): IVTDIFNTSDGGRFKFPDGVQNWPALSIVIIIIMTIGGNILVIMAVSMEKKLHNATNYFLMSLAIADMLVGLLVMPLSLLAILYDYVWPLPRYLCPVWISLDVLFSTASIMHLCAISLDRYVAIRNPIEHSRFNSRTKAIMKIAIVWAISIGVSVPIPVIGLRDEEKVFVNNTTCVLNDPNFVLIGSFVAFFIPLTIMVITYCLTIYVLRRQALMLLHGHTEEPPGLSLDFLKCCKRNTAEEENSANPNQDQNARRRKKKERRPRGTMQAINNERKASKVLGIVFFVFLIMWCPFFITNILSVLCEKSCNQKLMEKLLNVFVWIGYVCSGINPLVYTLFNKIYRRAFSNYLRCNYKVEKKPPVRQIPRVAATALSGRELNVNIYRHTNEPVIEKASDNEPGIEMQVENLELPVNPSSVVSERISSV
# 5-HT2a = target: T4, 5-HT2a (Homo sapiens, UniProt P28223); assay: Radioligand binding, 5-HT receptor family: 5-HT2a ([3H]Ketanserin); conditions: CHO-K1 human recombinant receptor, [3H]Ketanserin 1 nM; read-out: Binding affinity, IC50 (nM), 5-HT2a
# T4 construct: purchased Euroscreen/BioSignal Packard Inc
# T4 sequence (P28223 whole entry): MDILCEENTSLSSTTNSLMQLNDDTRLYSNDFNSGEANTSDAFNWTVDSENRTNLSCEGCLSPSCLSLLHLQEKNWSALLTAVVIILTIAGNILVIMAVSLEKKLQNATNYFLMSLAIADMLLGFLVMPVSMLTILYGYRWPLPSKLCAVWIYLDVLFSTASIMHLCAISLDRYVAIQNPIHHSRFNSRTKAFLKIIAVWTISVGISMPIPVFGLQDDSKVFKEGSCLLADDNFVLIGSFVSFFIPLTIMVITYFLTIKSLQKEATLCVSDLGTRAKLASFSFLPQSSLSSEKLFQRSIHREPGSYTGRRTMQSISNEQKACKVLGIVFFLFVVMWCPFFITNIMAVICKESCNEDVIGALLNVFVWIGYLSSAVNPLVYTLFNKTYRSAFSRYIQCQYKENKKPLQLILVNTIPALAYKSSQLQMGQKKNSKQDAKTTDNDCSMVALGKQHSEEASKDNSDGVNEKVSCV
# hD4.2 receptor = target: T5, hD4.2 receptor (Homo sapiens, UniProt P21917, DEL265-296); assay: Dopamine receptor family binding: D4 ([3H]YM-09151-2); conditions: [3H]YM-09151-2 0.06 nM; read-out: Binding affinity, IC50 (nM), D4
# T5 construct: purchased BioSignal Packard Inc., Montreal, Canada
# T5 sequence (P21917 with tags, fused parts or gaps DEL265-296): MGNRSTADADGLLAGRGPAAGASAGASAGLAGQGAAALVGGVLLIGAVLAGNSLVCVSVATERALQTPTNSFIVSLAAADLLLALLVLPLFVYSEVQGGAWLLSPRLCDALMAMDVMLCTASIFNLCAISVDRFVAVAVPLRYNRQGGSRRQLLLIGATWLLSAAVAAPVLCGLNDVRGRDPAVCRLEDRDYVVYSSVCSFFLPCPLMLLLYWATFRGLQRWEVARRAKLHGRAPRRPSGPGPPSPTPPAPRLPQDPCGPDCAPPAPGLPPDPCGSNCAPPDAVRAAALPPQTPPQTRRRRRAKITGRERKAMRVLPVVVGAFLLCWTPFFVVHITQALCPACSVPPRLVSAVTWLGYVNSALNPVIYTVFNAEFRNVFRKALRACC
# Protocol: as §1, §2
# 5-HT1a = target: T6, 5-HT1a (Homo sapiens, UniProt P08908); assay: Radioligand binding, 5-HT receptor family: 5-HT1a ([3H]8-OH-DPAT); conditions: CHO-K1 human recombinant receptor, [3H]8-OH-DPAT 0.5 nM; read-out: Binding affinity, IC50 (nM), 5-HT1a
# T6 construct: purchased Euroscreen/BioSignal Packard Inc
# T6 sequence (P08908 1-422): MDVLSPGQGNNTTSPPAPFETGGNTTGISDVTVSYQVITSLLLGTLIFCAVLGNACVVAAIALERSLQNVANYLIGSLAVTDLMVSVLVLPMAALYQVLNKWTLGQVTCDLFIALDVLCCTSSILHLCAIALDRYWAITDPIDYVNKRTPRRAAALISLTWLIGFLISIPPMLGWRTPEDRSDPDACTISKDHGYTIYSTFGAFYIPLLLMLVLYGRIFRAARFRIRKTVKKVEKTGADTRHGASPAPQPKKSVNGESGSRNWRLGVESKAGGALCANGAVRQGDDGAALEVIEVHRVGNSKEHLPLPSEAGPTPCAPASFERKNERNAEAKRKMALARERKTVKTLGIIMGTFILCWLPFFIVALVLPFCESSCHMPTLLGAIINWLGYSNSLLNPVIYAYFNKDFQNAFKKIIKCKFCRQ
# hD3 receptor = target: T7, hD3 receptor (Homo sapiens, UniProt P35462); assay: Dopamine receptor family binding: D3 ([3H]spiperone); conditions: [3H]spiperone 1 nM; read-out: Binding affinity, IC50 (nM), D3
# T7 construct: purchased BioSignal Packard Inc., Montreal, Canada
# T7 sequence (P35462 whole entry): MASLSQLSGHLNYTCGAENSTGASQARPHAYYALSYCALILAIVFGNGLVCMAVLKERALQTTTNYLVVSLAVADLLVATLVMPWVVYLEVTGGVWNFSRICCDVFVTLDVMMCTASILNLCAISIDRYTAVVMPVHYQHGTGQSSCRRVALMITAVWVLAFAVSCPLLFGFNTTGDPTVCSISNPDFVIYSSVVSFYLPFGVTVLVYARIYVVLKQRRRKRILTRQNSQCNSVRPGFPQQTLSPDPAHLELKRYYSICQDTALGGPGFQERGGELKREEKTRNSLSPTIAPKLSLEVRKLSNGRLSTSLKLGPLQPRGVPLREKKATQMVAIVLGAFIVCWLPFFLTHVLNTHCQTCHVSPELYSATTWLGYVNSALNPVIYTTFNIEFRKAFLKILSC
# [2] = Binding affinity, 5-HT6, Table 4
# [3] = binding affinity to the 5-HT6 receptor, Table 2, 1.87 nM [3H]LSD, cloned human receptor membranes from Sf21 cells, 37° C. 60 min
# Sequence of Human serotonin 5-HT6 receptor (P50406 whole entry): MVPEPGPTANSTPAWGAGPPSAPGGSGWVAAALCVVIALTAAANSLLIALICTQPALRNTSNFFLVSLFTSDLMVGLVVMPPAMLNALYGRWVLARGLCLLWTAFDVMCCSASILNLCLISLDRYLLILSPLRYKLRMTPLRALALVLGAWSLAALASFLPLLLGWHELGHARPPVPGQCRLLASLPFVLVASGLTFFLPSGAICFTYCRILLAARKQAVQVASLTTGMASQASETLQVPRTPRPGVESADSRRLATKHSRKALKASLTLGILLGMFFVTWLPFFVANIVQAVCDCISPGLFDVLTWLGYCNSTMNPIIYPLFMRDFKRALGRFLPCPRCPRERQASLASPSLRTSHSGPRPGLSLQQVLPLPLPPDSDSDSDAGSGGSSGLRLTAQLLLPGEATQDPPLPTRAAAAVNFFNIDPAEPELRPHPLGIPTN
Structure (SMILES),"IC50 [1, 2]","IC50 [1, 3]",IC50 (hD2L receptor),IC50 (5-HT7),IC50 (5-HT2c),melting point,IC50 (5-HT2a),IC50 (hD4.2 receptor),IC50 (5-HT1a),IC50 (hD3 receptor)
"CN1CCN(c2cc(Cl)cc3c2S(=O)(=O)N(Cc2ccccc2F)C(=O)N3Cc2ccccc2)CC1 [Example 2, 4-Benzyl-6-chloro-2-(2-fluoro-benzyl)-8-(4-methyl-piperazin-1-yl)-1,1-dioxo-1,4-dihydro-2H-1λ^6-benzo[1,2,4]thiadiazin-3-one]",1.9 nM,1.9 nM,> 10000 nM,> 10000 nM,578 nM,118 to 120 °C,335 nM,> 10000 nM,2300 nM,390 nM
"CN1CCN(c2cc(Cl)cc3c2S(=O)(=O)N(Cc2cccc(F)c2)C(=O)N3Cc2ccccc2)CC1 [Example 3, 4-Benzyl-6-chloro-2-(3-fluoro-benzyl)-8-(4-methyl-piperazin-1-yl)-1,1-dioxo-1,4-dihydro-2H-1λ^6-benzo[1,2,4]thiadiazin-3-one]",0.7 nM,0.7 nM,> 10000 nM,> 10000 nM,2190 nM,85 to 87 °C,846 nM,> 10000 nM,5980 nM,537 nM
"CN1CCN(c2cc(Cl)cc3c2S(=O)(=O)N(Cc2ccccc2Cl)C(=O)N3Cc2ccccc2)CC1 [Example 5, 4-Benzyl-6-chloro-2-(2-chloro-benzyl)-8-(4-methyl-piperazin-1-yl)-1,1-dioxo-1,4-dihydro-2H-1λ^6-benzo[1,2,4]thiadiazin-3-one]",1.3 nM,1.3 nM,5090 nM,> 10000 nM,240 nM,132 to 133 °C,396 nM,> 10000 nM,3010 nM,93 nM
"CN1CCN(c2cc(Cl)cc3c2S(=O)(=O)N(Cc2ccc(Cl)cc2)C(=O)N3Cc2ccccc2)CC1 [Example 7, 4-Benzyl-6-chloro-2-(4-chloro-benzyl)-8-(4-methyl-piperazin-1-yl)-1,1-dioxo-1,4-dihydro-2H-1λ^6-benzo[1,2,4]thiadiazin-3-one]",2.3 nM,2.3 nM,> 10000 nM,> 10000 nM,1540 nM,99 to 100 °C,488 nM,> 10000 nM,3910 nM,555 nM
"CCN1C(=O)N(Cc2ccccc2)c2cc(Cl)cc(N3CCN(C)CC3)c2S1(=O)=O [Example 33, 4-Benzyl-6-chloro-2-ethyl-8-(4-methyl-piperazin-1-yl)-1,1-dioxo-1,4-dihydro-2H-1λ^6-benzo[1,2,4]thiadiazin-3-one]",0.3 nM,0.3 nM,> 10000 nM,> 10000 nM,1240 nM,167 to 169 °C,119 nM,> 10000 nM,2620 nM,3170 nM
"O=C1N(Cc2ccccc2)c2cc(Cl)cc(N3CCOCC3)c2S(=O)(=O)N1Cc1ccccc1Cl [Example 69, 4-Benzyl-6-chloro-2-(2-chloro-benzyl)-8-morpholin-4-yl-1,1-dioxo-1,4-dihydro-2H-1λ^6-benzo[1,2,4]thiadiazin-3-one]",,> 1000 nM,,,,171 to 172 °C,,,,
"O=C1N(Cc2ccccc2)c2cc(Cl)cc(N3CCN(c4ccccn4)CC3)c2S(=O)(=O)N1Cc1ccccc1Cl [Example 70, 4-Benzyl-6-chloro-2-(2-chloro-benzyl)-1,1-dioxo-8-(4-pyridin-2-yl-piperazin-1-yl)-1,4-dihydro-2H-1λ^6-benzo[1,2,4]thiadiazin-3-one]",,> 1000 nM,,,,159 to 161 °C,,,,
"C[C@@H]1CN(c2cc(Cl)cc3c2S(=O)(=O)N(Cc2ccccc2Cl)C(=O)N3Cc2ccccc2)CCN1 [Example 71, 4-Benzyl-6-chloro-2-(2-chloro-benzyl)-8-[(R)-3-methyl-piperazin-1-yl]-1,1-dioxo-1,4-dihydro-2H-1λ^6-benzo[1,2,4]thiadiazin-3-one]",,147 nM,,,,134 to 136 °C,,,,
"C[C@H]1CN(c2cc(Cl)cc3c2S(=O)(=O)N(Cc2ccccc2Cl)C(=O)N3Cc2ccccc2)CCN1 [Example 72, 4-Benzyl-6-chloro-2-(2-chloro-benzyl)-8-[(S)-3-methyl-piperazin-1-yl]-1,1-dioxo-1,4-dihydro-2H-1λ^6-benzo[1,2,4]thiadiazin-3-one]",,6.8 nM,,,,142 to 143 °C,,,,
"O=C1N(Cc2ccccc2)c2cc(Cl)cc(N3CCN4CCC[C@H]4C3)c2S(=O)(=O)N1Cc1ccccc1Cl [Example 73, 4-Benzyl-6-chloro-2-(2-chloro-benzyl)-8-[(6S)-1,4-diazabicyclo[4.3.0]non-4-yl]-1,1-dioxo-1,4-dihydro-2H-1λ^6-benzo[1,2,4]thiadiazin-3-one]",,16 nM,,,,143 to 144 °C,,,,
"O=C1N(Cc2ccccc2)c2cc(Cl)cc(N3CCN4CCCC[C@@H]4C3)c2S(=O)(=O)N1Cc1ccccc1Cl [Example 75, 4-Benzyl-6-chloro-2-(2-chloro-benzyl)-8-[(6R)-1,4-diazabicyclo[4.4.0]dec-4-yl]-1,1-dioxo-1,4-dihydro-2H-1λ^6-benzo[1,2,4]thiadiazin-3-one]",,396 nM,,,,157 to 159 °C,,,,
